Reference: paper PMC7129073 (Clinical Microbiology and Infection, 2015)
Values after ≈ are worked out from the molar mass of the structure shown. Read-outs that look alike come from different tables or passages of the source.

Tests used:
[1] = Mediterranean spotted fever, randomised therapeutic study; format: in vivo, human
[2] = system: Streptococcus pneumoniae (SPN); assay: MIC; format: cell-based; details: 8378 isolates
[3] = system: C. pneumoniae target genes (LcrD, YscL, YscN, IncA, IncC, TyrB, GlyA); assay: Chlamydial gene expression; format: cell-based, Chlamydia pneumoniae; details: moxifloxacin 3.1 μg/ml, clarithromycin 2 μg/ml; peaking at 120 h
H. influenzae (HI) = assay: SENTRY Brazil, NCCLS broth microdilution; format: cell-based, Haemophilus influenzae
H.influenzae [4] = assay: PROTEKT Italy, NCCLS microdilution; format: cell-based, Haemophilus influenzae
[5] = system: Moraxella catarrhalis (MC); assay: MIC; format: cell-based; details: 2497 isolates
Nocardia spp. = assay: E-test on Mueller Hinton agar, 81 clinical isolates; format: cell-based; details: Nocardia
[6] = system: Streptococcus pyogenes (SPY); assay: MIC; format: cell-based; details: 2522 isolates
S. aureus [7] = assay: susceptibility of bloodstream isolates; format: cell-based
[8] = system: glycopeptide intermediate Staphylococcus species (GISS); assay: VITEK II, screening plate and E test, blood isolates; format: cell-based, coagulase-negative Staphylococci; details: for MIC: Staphylococcus
S. aureus [9] = assay: E-test susceptibility; format: cell-based, Staphylococcus aureus
[10] = system: foreign body infection Staphylococcus epidermidis strains; assay: NCCLS disk diffusion; format: cell-based; details: 86 strains
C. jejuni ATCC 33560 = assay: VetMIC broth microdilution, QC strain; format: cell-based; details: Campylobacter jejuni, ATCC33560, read-out: QC limits (MIC)
[11] = system: Salmonella, other 49 serotypes; assay: Disk diffusion, food isolates Spain; format: cell-based; details: n = 115
Escherichia coli = assay: Vitek 2 susceptibility, urine isolates of children; format: cell-based
[12] = system: Salmonella serotype Typhimurium; assay: Disk diffusion, food isolates Spain; format: cell-based; details: n = 53
E. faecalis [13] = assay: Italian survey of severe infections 2003, MIC; format: cell-based, Enterococcus faecalis
Salmonella spp. = assay: Agar dilution susceptibility, gastroenteritis isolates Cuba; format: cell-based; details: 34 strains, 2002
H. influenzae [14] = assay: Broth microdilution; format: cell-based, Haemophilus influenzae; details: 267 isolates
[15] = system: intestinal Escherichia coli; assay: ampicillin resistance of intestinal isolates during treatment; set-up: species or system beagles; details: dog, in vivo
enterococci = assay: Disk diffusion and E-test, faecal isolates of cancer patients; format: cell-based, Enterococcus; details: 38 strains
Moraxella spp. = assay: Disk diffusion; format: cell-based; details: 35 isolates
M. catarrhalis = assay: PROTEKT Italy, NCCLS microdilution; format: cell-based, Moraxella catarrhalis
Shigella spp. = assay: Disk diffusion, stool isolates Tehran; format: cell-based; details: 96 isolates
Staphylococcus aureus = assay: Susceptibility testing; format: cell-based; details: conjunctival isolates 2000–2004
S. pneumoniae [16] = assay: Broth microdilution; format: cell-based, Streptococcus pneumoniae
[17] = system: Salmonella serotype Enteritidis; assay: Disk diffusion, food isolates Spain; format: cell-based; details: n = 96
Haemophilus influenzae = assay: Susceptibility testing; format: cell-based; details: conjunctival isolates 2000–2004
E. faecalis [18] = assay: E-test susceptibility; format: cell-based, Enterococcus faecalis
PRSP = assay: Broth microdilution; format: cell-based, Streptococcus pneumoniae
Escherichia coli O157:H7 = assay: Kirby-Bauer susceptibility; format: cell-based; details: 30 strains, 1990–2003
ERSP = assay: Broth microdilution; format: cell-based, Streptococcus pneumoniae; details: Streptococcus pneumoniae
[19] = system: Staphylococcus coagulase negative (CNS); assay: Susceptibility testing; format: cell-based; details: conjunctival isolates 2000–2004
H. influenzae [20] = assay: MIC of invasive strains, Saint George Hospital 2001–2004; format: cell-based, Haemophilus influenzae; details: n = 129
H. influenzae [21] = assay: Disk diffusion, sputum isolates Athens 2001–2004; format: cell-based, Haemophilus influenzae
H. influenzae [22] = format: cell-based, Haemophilus influenzae
[23] = system: Pseudomonas putida clinical isolates; assay: Agar dilution MIC; format: cell-based
H.influenzae [24] = assay: Broth microdilution; format: cell-based, Haemophilus influenzae
E. coli = assay: Disk diffusion, urine isolates of BPH patients; details: strains isolated after operative intervention
H. influenzae [25] = assay: Disk diffusion; format: cell-based, Haemophilus influenzae; details: 237 isolates
S. pneumoniae [26] = format: cell-based, Streptococcus pneumoniae
S. aureus 10 = assay: in vitro dynamic model, enrichment of resistant mutants; format: cell-based
MSSA = assay: Agar dilution MIC; format: cell-based, Staphylococcus aureus
[27] = system: viridans group streptococci (VgS) and Streptococcus bovis; assay: Broth microdilution and disk diffusion; format: cell-based; details: nine species
E. faecium = assay: E-test susceptibility; format: cell-based, Enterococcus faecium
MRSA [28] = assay: Disk diffusion; format: cell-based, Staphylococcus aureus; details: 200 isolates
MDR-MRSA = assay: MIC, MBC; format: cell-based, Staphylococcus aureus; details: time kill, two strains
[29] = system: viridans group streptococci (VGS); assay: MIC; format: cell-based
CA-MRSA = assay: MIC, MBC; format: cell-based, Staphylococcus aureus; details: time kill, two strains
[30] = system: Staphylococcus haemolyticus; assay: E-test, classical method and macromethod; format: cell-based
[31] = system: agr+ group II S. aureus (RN6607); assay: in vitro pharmacodynamic model, MIC by E-test and microdilution; format: cell-based; details: Staphylococcus aureus, 72 h, read-out: post-exposure MIC
[32] = system: agr− group II S. aureus (RN9120); assay: as above; format: cell-based; details: Staphylococcus aureus, read-out: post-exposure MIC
[33] = system: Staphylococci epidermidis; assay: E-test, classical method and macromethod; format: cell-based, Staphylococcus epidermidis; details: four strains: 8, 8, 12, 12; BHI agar, 2.0 McFarland, 48 h
MRSA [34] = assay: Agar dilution MIC; format: cell-based, Staphylococcus aureus
Acinetobacter = assay: Disk diffusion; format: cell-based; details: 37 isolates selected as resistant to beta-lactams
[35] = system: Stenotrophomonas maltophilia; assay: E-test, sputum isolates of children with cystic fibrosis; format: cell-based; details: 2000–2004
S. maltophilia = assay: Susceptibility of respiratory isolates of cancer patients; format: cell-based, Stenotrophomonas maltophilia; details: 40 patients
[36] = NCCLS breakpoints (Amox/Clav 2/1 mcg/mL)

With `CC[C@H]1OC(=O)[C@H](C)[C@@H](O[C@H]2C[C@@](C)(OC)[C@@H](O)[C@H](C)O2)[C@H](C)[C@@H](O[C@@H]2O[C@H](C)C[C@H](N(C)C)[C@H]2O)[C@](C)(OC)C[C@@H](C)C(=O)[C@H](C)[C@@H](O)[C@]1(C)O` [clarithromycin] the “adverse reactions or relapses” value ([1]; either group) was “no adverse reactions”, the “time for disappearance of the fever after treatment” value ([1]; group A n=14, group B n=20) was 2.57 ± 1.7 days and the “time to disappearance of symptoms” value ([1]; group A n=14, group B n=20) was 4.35 ± 2.5 days. The MIC90 [2] was 0.5 ig/ml, the “upregulation of mRNA of all target genes” value [3] was “less prominent” and the “% S” value (H. influenzae (HI); 1998) was 90%. For the same molecule, the “% S” value (H. influenzae (HI); 1999) was 100%, the “% S” value (H. influenzae (HI); 2000) was 92% and the “% S” value (H. influenzae (HI); 2001) was 91%. For the same molecule, the “% S” value (H. influenzae (HI); 2002) was 90%, the “% S” value (H. influenzae (HI); 2003) was 94% and the resistance (H.influenzae [4]; year 1) was 36.9%. It also gave a resistance (H.influenzae [4]; year 2) of 25.7%, an MIC90 [5] of 0.5 ig/ml and an MIC50 (Nocardia spp.) of 8 µg/mL (≈ 10.7 µM). For the same molecule, the MIC90 (Nocardia spp.) was 96 µg/mL (≈ 128 µM) and the MIC90 [6] was 0.12 ig/ml.
With `Cc1onc(-c2ccccc2)c1C(=O)N[C@@H]1C(=O)N2[C@@H]1SC(C)(C)[C@@H]2C(=O)O` [oxacillin] the resistance (S. aureus [7]) was 43%, the sensitive strains ([8]; six out of 73) was 8,2% and the Susceptibility (S. aureus [9]; ICU, SRGA breakpoints, tigecycline tentative S ≤2 μg/ml) was 97%. The Susceptibility (S. aureus [9]; non-ICU) was 98%, the “% isolates resistant” value (S. aureus [9]; total) was 2% and the “% resistant” value [10] was “More than 30%”.
With `CC1(C)S[C@@H]2[C@H](NC(=O)[C@H](N)c3ccccc3)C(=O)N2[C@H]1C(=O)O` [ampicillin] the MIC (C. jejuni ATCC 33560) was 2 to 8 µg/mL (≈ 5.72 to 22.9 µM), the “resistance rate (NCCLS M100-S13)” value [11] was 14% and the susceptibility rate (Escherichia coli; paediatric surgical unit (PSU)) was 15%. The susceptibility rate (Escherichia coli; paediatric units (PU)) was 54%, the “resistance rate (NCCLS M100-S13)” value [12] was 62% and the resistance (E. faecalis [13]) was 0.4%. For the same molecule, the resistance (Salmonella spp.) was 44%, the resistant (H. influenzae [14]) was 5.2% and the “proportion of ampicillin-resistant isolates during treatment” value [15] was 98%. The resistant strains (enterococci; gentamycin: high level) was 50%, the Susceptible isolates (Moraxella spp.) was 49% and the resistant isolates (Moraxella spp.) was 51%. For the same molecule, the susceptibility rate (M. catarrhalis; year 1) was 22.7%, the susceptibility rate (M. catarrhalis; year 2) was 18.9% and the resistance (Shigella spp.) was 100%. The resistant isolates (Staphylococcus aureus) was 66.6%, the “%Sus” value (S. pneumoniae [16]; [36]) was 0.0% and the MIC90 (S. pneumoniae [16]; Streptococcus pneumoniae) was 4 µg/mL (≈ 11.4 µM). For the same molecule, the “resistance rate (NCCLS M100-S13)” value [17] was 8%, the resistant isolates (Haemophilus influenzae) was 9.5% and the Susceptibility (E. faecalis [18]; ICU, SRGA breakpoints, tigecycline tentative ≤2 μg/ml) was 99/99%. The Susceptibility (E. faecalis [18]; non-ICU) was 99/99%, the “%Sus” value (PRSP; [36]) was 0.0% and the MIC90 (PRSP; Streptococcus pneumoniae, PRSP) was 8 µg/mL (≈ 22.9 µM). For the same molecule, the resistant strains (Escherichia coli O157:H7) was 13.3%, the MIC90 (ERSP) was 8 µg/mL (≈ 22.9 µM) and the resistant isolates [19] was 79.5%. The resistant isolates (H. influenzae [20]) was 60%, the resistance rate (H. influenzae [21]; 2001–2002) was 10.9% and the resistance rate (H. influenzae [21]; 2003–2004) was 23.1%. The resistant (H. influenzae [22]) was 4.7%, the resistance (H.influenzae [4]; year 1) was 26.5% and the resistance (H.influenzae [4]; year 2) was 20.6%. The MIC [23] was greater than 128 µg/mL, the MIC90 (H.influenzae [24]; Haemophilus influenzae) was greater than 16 µg/mL and the “%Sus” value (H.influenzae [24]; NCCLS) was 74.6%. For the same molecule, the resistance (E. coli) was 93.1% and the Susceptible isolates (H. influenzae [25]) was 92%.
For `CN[C@H](CC(C)C)C(=O)N[C@H]1C(=O)N[C@@H](CC(N)=O)C(=O)N[C@H]2C(=O)N[C@H]3C(=O)N[C@H](C(=O)N[C@H](C(=O)O)c4cc(O)cc(O)c4-c4cc3ccc4O)[C@H](O)c3ccc(c(Cl)c3)Oc3cc2cc(c3O[C@@H]2O[C@H](CO)[C@@H](O)[C@H](O)[C@H]2O[C@H]2C[C@](C)(N)[C@H](O)[C@H](C)O2)Oc2ccc(cc2Cl)[C@H]1O` [vancomycin], the resistant (S. pneumoniae [26]) was 0%, the “AUC/MIC predicted to protect from selection of resistant mutants” value (S. aureus 10) was 256 h and the “AUC/MIC at which resistant mutants were selected” value (S. aureus 10; five-day treatment) was 32 to 128 h. The MIC50 (MSSA; Staphylococcus aureus, MSSA) was less than 0.5 µg/mL, the MIC90 (MSSA; Staphylococcus aureus, MSSA) was less than 1 µg/mL and the MIC range (MSSA; n = 200) was 0.5 to 1 µg/mL (≈ 0.345 to 0.69 µM). The “% S, range between species” value [27] was 100.0%, the Susceptibility (E. faecium; ICU) was 93% and the Susceptibility (E. faecium; non-ICU) was 98%. For the same molecule, the “% isolates resistant (VRE)” value (E. faecium; total) was 4%, the “sensitivity of all isolated strains” value (enterococci) was “All the isolated strains were sensitive” and the sensitivity (MRSA [28]) was “All isolates were sensitive”. The “Δ Log10 CFU/ml” value (MDR-MRSA) was −3.97 Log10 CFU/ml, the MIC50 [29] was 0.5 µg/mL (≈ 0.345 µM) and the MIC90 [29] was 1 µg/mL (≈ 0.69 µM). The tolerant isolates ([29]; 83 isolates, tolerance to VA and TP) was 77.6%, the “susceptibility of all isolates” value ([29]; NCCLS) was “All isolates were susceptible” and the “Δ Log10 CFU/ml” value (CA-MRSA) was −3.78 Log10 CFU/ml. For the same molecule, the MIC ([8]; read-out: MIC of intermediate sensitive strains) was 8 to 12 µg/mL, the MIC ([8]; read-out: MIC of resistant strain) was 32 µg/mL and the MIC ([30]; read-out: MIC, classical E-test) was 3 µg/mL (≈ 2.07 µM). It also gave an MIC ([30]; read-out: MIC, macromethod of E-test) of 32 µg/mL (≈ 22.1 µM), an MIC [31] of no more than 2 µg/mL and an MIC [32] of 6 µg/mL (≈ 4.14 µM). For the same molecule, the “MIC, macromethod of E-test” value [33] was 12 µg/mL, the MIC50 (MRSA [34]; Staphylococcus aureus, MRSA) was less than 1 µg/mL and the MIC90 (MRSA [34]; Staphylococcus aureus, MRSA) was less than 1 µg/mL. The MIC range (MRSA [34]; n = 50) was 1 µg/mL (≈ 0.69 µM).
Work on ticarcillin/clavulanic acid yielded a resistant isolates (Acinetobacter) of 32.4%, a sensitivity [35] of 59.3% and a Susceptible isolates (S. maltophilia) of 65%.
